Among the test systems are SNB-19; MDA-MB-435; NCI-H23; Malme-3M; SK-MEL-2; SNB-75; OVCAR-5; A549; CCRF-CEM; SN12C; ACHN; NCI/ADR-RES; HT-29; IGROV-1; U-251; CAKI-1; M14; KM12; LOX IMVI; A498.
Assay in all cases: growth of human tumour cells (NCI), 48 h

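Five compound concentrations were applied to cells in 96-well plates for 48 hours; endpoints were derived by simple linear interpolation of the resulting dose-response curve. GI50 marks 50% less growth.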 The source made the active and inactive calls. No stated cut-off is given here; in the data, active = GI50 up to about 1.1 µM and inactive = higher. A value given as a limit tells only on which side of the number the result lay.

`COC(=O)[C@]1(C)[C@H]2C[C@H]3O[C@H]4[C@H](O)[C@@H](O)OC(CC(O)C(C5=CC(=O)OC5)C(C5=CC(=O)OC5)C(O)CC56CCCCC7[C@@H](C)[C@H](C[C@H]8[C@](C)(C(=O)OC)[C@H](O)CC[C@]78C)O[C@H]([C@@H](O)[C@H](O)O5)[C@H]6O)(CCCCC([C@@H]3C)[C@]2(C)CC[C@@H]1O)[C@H]4O` (stereo not given in full): the GI50 with SNB-19 was 0.372 µM (active); in the assay with MDA-MB-435, 0.247 µM (active); with NCI-H23, 0.0439 µM (active); with Malme-3M it was 0.0989 µM (active); with SK-MEL-2, 0.237 µM (active); in the assay with SNB-75 it was 0.129 µM (active). Also, the GI50 is 0.592 µM (active) in the assay with OVCAR-5; 0.0286 µM (active) in the assay with A549; 0.0603 µM (active) in the assay on CCRF-CEM; < 0.021 µM (active) in the assay on SN12C; < 0.0218 µM (active) in the assay with ACHN; 0.0973 µM (active) in the assay on NCI/ADR-RES. Besides, the GI50 with HT-29 was 0.157 µM (active); in the assay on IGROV-1, 0.0959 µM (active); in the assay with U-251, 0.194 µM (active); in the assay on CAKI-1 it was 0.0488 µM (active); in the assay with M14, 0.332 µM (active); with KM12, 0.353 µM (active). In addition, the GI50 in the assay on LOX IMVI was 0.0993 µM (active); with A498, 0.0916 µM (active).

In the case of `CN(C)c1n/c(=N/Cc2ccco2)ss1`, the GI50 in the assay on SNB-19 was 60.5 µM (inactive); with MDA-MB-435 it was 20.5 µM (inactive); in the assay on NCI-H23, 25.6 µM (inactive); with Malme-3M, 18.7 µM (inactive); in the assay on SK-MEL-2 it was > 21.1 µM (inactive); with SNB-75 it was 20.5 µM (inactive). The GI50 in the assay on OVCAR-5 was > 40.5 µM (inactive); in the assay with A549, 15.6 µM (inactive); in the assay on CCRF-CEM it was 1.43 µM (inactive); with SN12C, 31.6 µM (inactive); in the assay on ACHN it was 25.9 µM (inactive); in the assay with NCI/ADR-RES it was 75.3 µM (inactive). Moreover, the GI50 in the assay with HT-29 was 2.44 µM (inactive); in the assay with IGROV-1 it was > 54.8 µM (inactive); with U-251 it was 31.5 µM (inactive); in the assay with CAKI-1, 30.5 µM (inactive); with M14 it was 21 µM (inactive); in the assay with KM12 it was 3.72 µM (inactive). Further, the GI50 is 18.5 µM (inactive) with LOX IMVI and > 78 µM (inactive) with A498.

Values taken from ChEMBL document CHEMBL1201862, “PubChem BioAssay data set” (2004).
